According to patent publication US20160200733A1, “SUBSTITUTED THIENO[2,3-B]PYRIDINE-2-CARBOXAMIDE ANALOGS AS POSITIVE ALLOSTERIC MODULATORS OF THE MUSCARINIC ACETYLCHOLINE RECEPTOR M4” (Vanderbilt University, priority 2013, published 2016):

Molecular target: T1, mAChR hM4 (Homo sapiens, UniProt P08173)
T1 construct: expressed in transfected cells; host or cells: CHO-K1 (Chinese hamster ovary) cells
T1 sequence (P08173 1-479): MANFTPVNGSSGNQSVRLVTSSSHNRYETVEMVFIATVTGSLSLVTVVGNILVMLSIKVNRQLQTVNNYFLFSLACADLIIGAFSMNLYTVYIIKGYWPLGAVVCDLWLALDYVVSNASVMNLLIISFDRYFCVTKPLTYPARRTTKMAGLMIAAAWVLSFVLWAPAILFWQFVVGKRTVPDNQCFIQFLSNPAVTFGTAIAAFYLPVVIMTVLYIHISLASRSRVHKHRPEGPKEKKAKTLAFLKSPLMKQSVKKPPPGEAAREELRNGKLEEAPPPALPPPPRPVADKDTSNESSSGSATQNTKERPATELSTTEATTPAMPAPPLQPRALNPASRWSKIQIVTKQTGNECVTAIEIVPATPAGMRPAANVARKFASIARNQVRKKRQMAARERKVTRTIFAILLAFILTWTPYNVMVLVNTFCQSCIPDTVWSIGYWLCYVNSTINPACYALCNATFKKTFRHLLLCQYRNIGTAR
Experiment: mAChR M4 cell-based functional assay (calcium flux, potentiation of EC20 acetylcholine response)
Conditions: mAChR hM4 cell-line; for EC50: >10,000 estimated for low potency compounds lacking a plateau; for Emax at 30 µM: % ACh maximum at 30 μM
How it was run: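 CHO-K1 cells expressing human M4, loaded with Fluo-4 Ca2+ dye; potentiation of an EC20 acetylcholine response read as increase in fluorescence static ratio. EC50 and Emax from concentration-dependent increase over the EC20 response.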

EC50 [µM]	Emax at 30 µM [%]	SMILES
> 10	–	COc1ccc(CNC(=O)c2sc3nc(C)c(Cl)c(C)c3c2-c2cnn(C)c2)cc1F [Compound 99, 5-chloro-N-(3-fluoro-4-methoxybenzyl)-4,6-dimethyl-3-(1-methyl-1H-pyrazol-4-yl)thieno[2,3-b]pyridine-2-carboxamide]
> 10	–	Cc1cnc2sc(C(=O)NC3CN(c4ccc(C(F)(F)F)nc4)C3)cc2c1C [Compound 100, 4,5-dimethyl-N-(1-(6-(trifluoromethyl)pyridin-3-yl)azetidin-3-yl)thieno[2,3-b]pyridine-2-carboxamide]
2.7	41	Cc1cnc2sc(C(=O)NCc3ccc(-c4cccnc4F)cc3)cc2c1C [Compound 101, N-(4-(2-fluoropyridin-3-yl)benzyl)-4,5-dimethylthieno[2,3-b]pyridine-2-carboxamide]
> 10	60	Cc1cnc2sc(C(=O)NC3COC3)cc2c1C [Compound 102, 4,5-dimethyl-N-(oxetan-3-yl)thieno[2,3-b]pyridine-2-carboxamide]
0.58	76	Cc1cnc2sc(C(=O)NC3CN(c4cccnc4)C3)cc2c1C [Compound 103, 4,5-dimethyl-N-(1-(pyridin-3-yl)azetidin-3-yl)thieno[2,3-b]pyridine-2-carboxamide]
> 10	–	Cc1cnc2sc(C(=O)NCc3ccc(-c4ccnnc4)s3)cc2c1C [Compound 104, 4,5-dimethyl-N-((5-(pyridazin-4-yl)thiophen-2-yl)methyl)thieno[2,3-b]pyridine-2-carboxamide]
> 10	–	Cc1nc2sc(C(=O)NCC3CCC3)c(-c3cnn(C)c3)c2c(C)c1Cl [Compound 105, 5-chloro-N-(cyclobutylmethyl)-4,6-dimethyl-3-(1-methyl-1H-pyrazol-4-yl)thieno[2,3-b]pyridine-2-carboxamide]
> 10	–	Cc1nc2sc(C(=O)N3CCCOCC3)c(-c3cnn(C)c3)c2c(C)c1Cl [Compound 106, (5-chloro-4,6-dimethyl-3-(1-methyl-1H-pyrazol-4-yl)thieno[2,3-b]pyridin-2-yl)(1,4-oxazepan-4-yl)methanone]
> 10	–	Cc1nc2sc(C(=O)N3CCN(C)CC3)c(-c3cnn(C)c3)c2c(C)c1Cl [Compound 107, (5-chloro-4,6-dimethyl-3-(1-methyl-1H-pyrazol-4-yl)thieno[2,3-b]pyridin-2-yl)(4-methylpiperazin-1-yl)methanone]
> 10	–	Cc1nc2sc(C(=O)N3CCC(F)(F)CC3)c(-c3cnn(C)c3)c2c(C)c1Cl [Compound 108, (5-chloro-4,6-dimethyl-3-(1-methyl-1H-pyrazol-4-yl)thieno[2,3-b]pyridin-2-yl)(4,4-difluoropiperidin-1-yl)methanone]
> 10	–	Cc1nc2sc(C(=O)N3CC4C(C3)C4(C)C)c(-c3cnn(C)c3)c2c(C)c1Cl (stereo not shown) [Compound 109, (5-chloro-4,6-dimethyl-3-(1-methyl-1H-pyrazol-4-yl)thieno[2,3-b]pyridin-2-yl)(6,6-dimethyl-3-azabicyclo[3.1.0]hexan-3-yl)methanone]
> 10	–	Cc1nc2sc(C(=O)N3CCOCC3)c(-c3cnn(C)c3)c2c(C)c1Cl [Compound 110, (5-chloro-4,6-dimethyl-3-(1-methyl-1H-pyrazol-4-yl)thieno[2,3-b]pyridin-2-yl)(morpholino)methanone]
> 10	–	Cc1nc2sc(C(=O)N[C@@H](C)C3CC3)c(-c3cnn(C)c3)c2c(C)c1Cl [Compound 111, (S)-5-chloro-N-(1-cyclopropylethyl)-4,6-dimethyl-3-(1-methyl-1H-pyrazol-4-yl)thieno[2,3-b]pyridine-2-carboxamide]
> 10	–	Cc1nc2sc(C(=O)NCC3CC3)c(-c3cnn(C)c3)c2c(C)c1Cl [Compound 112, 5-chloro-N-(cyclopropylmethyl)-4,6-dimethyl-3-(1-methyl-1H-pyrazol-4-yl)thieno[2,3-b]pyridine-2-carboxamide]
> 10	–	Cc1nc2sc(C(=O)N3CCCN(C)CC3)c(-c3cnn(C)c3)c2c(C)c1Cl [Compound 113, (5-chloro-4,6-dimethyl-3-(1-methyl-1H-pyrazol-4-yl)thieno[2,3-b]pyridin-2-yl)(4-methyl-1,4-diazepan-1-yl)methanone]
> 10	–	Cc1nc2sc(C(=O)NC3COC3)c(-c3ccc4nonc4c3)c2c(C)c1Cl [Compound 114, 3-(benzo[c][1,2,5]oxadiazol-5-yl)-5-chloro-4,6-dimethyl-N-(oxetan-3-yl)thieno[2,3-b]pyridine-2-carboxamide]
> 10	–	Cc1nc2sc(C(=O)NC3COC3)c(-c3cccs3)c2c(C)c1Cl [Compound 115, 5-chloro-4,6-dimethyl-N-(oxetan-3-yl)-3-(thiophen-2-yl)thieno[2,3-b]pyridine-2-carboxamide]

EC50 [µM]	Emax at 30 µM [%]	SMILES
> 10	–	Cc1nc2sc(C(=O)NC3COC3)c(-c3ccc4nccnc4c3)c2c(C)c1Cl [Compound 116, 5-chloro-4,6-dimethyl-N-(oxetan-3-yl)-3-(quinoxalin-6-yl)thieno[2,3-b]pyridine-2-carboxamide]
> 10	–	Cc1nc2sc(C(=O)NC3COC3)c(-c3ccsc3)c2c(C)c1Cl [Compound 117, 5-chloro-4,6-dimethyl-N-(oxetan-3-yl)-3-(thiophen-3-yl)thieno[2,3-b]pyridine-2-carboxamide]
1.5	56	Cc1nc2sc(C(=O)NC3CC3)c(Cl)c2c(C)c1Cl [Compound 118, 3,5-dichloro-N-cyclopropyl-4,6-dimethylthieno[2,3-b]pyridine-2-carboxamide]
> 10	–	Cc1nc2sc(C(=O)NCC3CC3)c(Cl)c2c(C)c1Cl [Compound 119, 3,5-dichloro-N-(cyclopropylmethyl)-4,6-dimethylthieno[2,3-b]pyridine-2-carboxamide]
> 10	–	Cc1nc2sc(C(=O)N[C@@H](C)C3CC3)c(Cl)c2c(C)c1Cl [Compound 120, (S)-3,5-dichloro-N-(1-cyclopropylethyl)-4,6-dimethylthieno[2,3-b]pyridine-2-carboxamide]
> 10	–	Cc1nc2sc(C(=O)N[C@H](C)C3CC3)c(Cl)c2c(C)c1Cl [Compound 121, (R)-3,5-dichloro-N-(1-cyclopropylethyl)-4,6-dimethylthieno[2,3-b]pyridine-2-carboxamide]
2.6	61	Cc1nc2sc(C(=O)NC3(C)COC3)c(Cl)c2c(C)c1Cl [Compound 122, 3,5-dichloro-4,6-dimethyl-N-(3-methyloxetan-3-yl)thieno[2,3-b]pyridine-2-carboxamide]
> 10	34	Cc1nc2sc(C(=O)NC3CCC3)c(Cl)c2c(C)c1Cl [Compound 123, 3,5-dichloro-N-cyclobutyl-4,6-dimethylthieno[2,3-b]pyridine-2-carboxamide]
1.2	43	Cc1nc2sc(C(=O)NC3CCOC3)c(Cl)c2c(C)c1Cl (stereo not shown) [Compound 124, 3,5-dichloro-4,6-dimethyl-N-(tetrahydrofuran-3-yl)thieno[2,3-b]pyridine-2-carboxamide]
> 10	–	Cc1nc2sc(C(=O)NCC3(C)COC3)c(Cl)c2c(C)c1Cl [Compound 125, 3,5-dichloro-4,6-dimethyl-N-((3-methyloxetan-3-yl)methyl)thieno[2,3-b]pyridine-2-carboxamide]
0.53	67	Cc1nc2sc(C(=O)NC3COC3)c(Cl)c2c(C)c1Cl [Compound 126, 3,5-dichloro-4,6-dimethyl-N-(oxetan-3-yl)thieno[2,3-b]pyridine-2-carboxamide]
> 10	35	Cc1nc2sc(C(=O)NC3[C@H]4C[C@@H]3C4)c(Cl)c2c(C)c1Cl (stereo partly shown) [Compound 127, N-((1s,3s)-bicyclo[1.1.1]pentan-2-yl)-3,5-dichloro-4,6-dimethylthieno[2,3-b]pyridine-2-carboxamide]
> 10	33	Cc1nc2sc(C(=O)NC3CC(F)(F)C3)c(Cl)c2c(C)c1Cl [Compound 128, 3,5-dichloro-N-(3,3-difluorocyclobutyl)-4,6-dimethylthieno[2,3-b]pyridine-2-carboxamide]
> 10	–	Cc1nc2sc(C(=O)NCC3CCC3)c(Cl)c2c(C)c1Cl [Compound 129, 3,5-dichloro-N-(cyclobutylmethyl)-4,6-dimethylthieno[2,3-b]pyridine-2-carboxamide]
> 10	–	Cc1cc(C)c2c(Br)c(C(=O)NC(C)C)sc2n1 [Example 1, 3-bromo-N-isopropyl-4,6-dimethylthieno[2,3-b]pyridine-2-carboxamide]
3.3	68	Cc1cc(C)c2c(Br)c(C(=O)NC3COC3)sc2n1 [Example 2, 3-bromo-4,6-dimethyl-N-(oxetan-3-yl)thieno[2,3-b]pyridine-2-carboxamide]
3.9	44	Cc1cc(C)c2c(Br)c(C(=O)N3CCCC3)sc2n1 [Example 3, (3-bromo-4,6-dimethylthieno[2,3-b]pyridin-2-yl)(pyrrolidin-1-yl)methanone]
